Measured values published in ChEMBL document CHEMBL5512691, “Synthetically Feasible De Novo Molecular Design of Leads Based on a Reinforcement Learning Model: AI-Assisted Discovery of an Anti-IBD Lead Targeting CXCR4” (J Med Chem, 2024).
Active and inactive are the calls of the source. No cut-off for these calls is given here.

Experiments:
[1] = biological target: T1, C-X-C chemokine receptor type 4 (Homo sapiens, UniProt P61073); experiment: (§1) Competitive binding affinity to CXCR4 (unknown origin) assessed as inhibition of CXCR4 to TN14003 interaction at 10 nM preincubated for 10 mins followed by compound washout and subsequent TN14003 addition for 30 mins prior to incubation under dark condition for 30 mins by DAPI staining based laser scanning confocal microscopic analysis relative to control; design: scale not given: the % may be the effect or the level left
[2] = biological target: T1, C-X-C chemokine receptor type 4; experiment: as §1, with “interaction” for “interaction at 10 nM”, “analysis” for “analysis relative to control”
Mus musculus [3] = experiment: Anti-inflammatory activity in DSS induced C57BL/6 mouse model of colitis assessed as inhibition rate at 25 mg/kg, IG administered twice daily for 2 weeks; assay type: functional; design: scale not given: the % may be the effect or the level left
Mus musculus [4] = experiment: Anti-inflammatory activity in DSS induced C57BL/6 mouse model of colitis assessed as decrease in IL-6 expression at 25 mg/kg, IG administered twice daily for 2 weeks by bioluminescence microscopy; assay type: functional, organism-based
Mus musculus [5] = experiment: Anti-inflammatory activity in DSS induced C57BL/6 mouse model of colitis assessed as decrease in TNF-alpha expression at 25 mg/kg, IG administered twice daily for 2 weeks by bioluminescence microscopy; assay type: functional, organism-based
RAW264.7 [6] = experiment: Inhibition of CXCL-12 induced chemotaxis in mouse RAW264.7 cells at 10 nM incubated for 22 hrs by crystal violet staining based transwell assay; assay type: functional, cell-based
Mus musculus [7] = experiment: Anti-inflammatory activity in DSS induced C57BL/6 mouse model of colitis assessed as decrease in IL-1beta expression at 25 mg/kg, IG administered twice daily for 2 weeks by bioluminescence microscopy; assay type: functional, organism-based
Mus musculus [8] = experiment: Anti-inflammatory activity in DSS induced C57BL/6 mouse model of colitis assessed as decrease in number of bleeding points at 25 mg/kg, IG administered twice daily for 2 weeks; assay type: functional, organism-based
Mus musculus [9] = experiment: Anti-inflammatory activity in DSS induced C57BL/6 mouse model of colitis assessed as reduction in DAI score at 25 mg/kg, IG administered twice daily for 2 weeks (reference value: 3); assay type: functional
Mus musculus [10] = experiment: Anti-inflammatory activity in DSS induced C57BL/6 mouse model of colitis assessed as increase in colon length at 25 mg/kg, IG administered twice daily for 2 weeks; assay type: functional, organism-based
RAW264.7 [11] = experiment: Inhibition of CXCL-12 induced chemotaxis in mouse RAW264.7 cells incubated for 22 hrs by transwell assay; assay type: functional
Mus musculus [12] = experiment: Anti-inflammatory activity in DSS induced C57BL/6 mouse model of colitis assessed as decrease in colon MPO level at 25 mg/kg, IG administered twice daily for 2 weeks by microplate reader assay; assay type: functional, organism-based
Mus musculus [13] = experiment: Anti-inflammatory activity in DSS induced C57BL/6 mouse model of colitis assessed as alleviation in colon edema at 25 mg/kg, IG administered twice daily for 2 weeks; assay type: functional, organism-based
Mus musculus [14] = experiment: Anti-inflammatory activity in DSS induced C57BL/6 mouse model of colitis assessed as alleviation in body weight loss at 25 mg/kg, IG administered twice daily for 2 weeks; assay type: functional, organism-based
Mus musculus [15] = experiment: Anti-inflammatory activity in DSS induced C57BL/6 mouse model of colitis assessed as decrease in number of bleeding area at 25 mg/kg, IG administered twice daily for 2 weeks; assay type: functional, organism-based
[16] = Stability in human plasma assessed as compound remaining measured upto 120 mins by LC-MS analysis; assay type: ADME, cell-free; conditions: read-out: Stability
[17] = Bioavailability in Sprague-Dawley rat at 20 mg/kg, IG measured upto 12 hrs by LC-MS/MS analysis; assay type: ADME, organism-based; conditions: in vivo, po
[18] = Half-life in Sprague-Dawley rat at 2 mg/kg, iv measured upto 12 hrs by LC-MS/MS analysis; assay type: ADME, organism-based; conditions: in vivo
Mus musculus [19] = experiment: Anti-inflammatory activity in DSS induced C57BL/6 mouse model of colitis assessed as decrease in thickness of colon mucosa at 25 mg/kg, IG administered twice daily for 2 weeks by bioluminescence microscopy; assay type: functional, organism-based
Mus musculus [20] = experiment: Anti-inflammatory activity in DSS induced C57BL/6 mouse model of colitis assessed as restoration of integrity of glands at 25 mg/kg, IG administered twice daily for 2 weeks by bioluminescence microscopy; assay type: functional, organism-based
[21] = Clearance in Sprague-Dawley rat at 2 mg/kg, iv measured upto 12 hrs by LC-MS/MS analysis; assay type: ADME, organism-based; conditions: in vivo
Mus musculus [22] = experiment: Anti-inflammatory activity in DSS induced C57BL/6 mouse model of colitis assessed as decrease in inflammatory track infiltration at 25 mg/kg, IG administered twice daily for 2 weeks by bioluminescence microscopy; assay type: functional, organism-based
Mus musculus [23] = experiment: Anti-inflammatory activity in DSS induced C57BL/6 mouse model of colitis assessed as decrease in intestinal track inflammation at 25 mg/kg, IG administered twice daily for 2 weeks by bioluminescence microscopy; assay type: functional, organism-based
[24] = Stability in human liver microsomes assessed as half life measured upto 45 mins in presence of NADPH by LC-MS analysis; assay type: ADME, Microsome
[25] = Half-life in Sprague-Dawley rat at 20 mg/kg, IG measured upto 12 hrs by LC-MS/MS analysis; assay type: ADME, organism-based; conditions: in vivo, po
[26] = AUC(0 to t) in Sprague-Dawley rat at 2 mg/kg, iv measured upto 12 hrs by LC-MS/MS analysis; assay type: ADME, organism-based; conditions: in vivo
[27] = Volume of distribution in Sprague-Dawley rat at 20 mg/kg, IG measured upto 12 hrs by LC-MS/MS analysis; assay type: ADME, organism-based; conditions: in vivo, po
[28] = Cmax in Sprague-Dawley rat at 2 mg/kg, iv measured upto 12 hrs by LC-MS/MS analysis; assay type: ADME, organism-based; conditions: in vivo
[29] = Stability in human liver microsomes assessed as compound remaining measured upto 45 mins in presence of NADPH by LC-MS analysis; assay type: ADME, Microsome; conditions: read-out: Stability
[30] = Tmax in Sprague-Dawley rat at 20 mg/kg, IG measured upto 12 hrs by LC-MS/MS analysis; assay type: ADME, organism-based; conditions: in vivo, po
Mus musculus [31] = experiment: Anti-inflammatory activity in DSS induced C57BL/6 mouse model of colitis assessed as restoration of number of goblet cells at 25 mg/kg, IG administered twice daily for 2 weeks by bioluminescence microscopy; assay type: functional, organism-based
Mus musculus [32] = experiment: Anti-inflammatory activity in DSS induced C57BL/6 mouse model of colitis assessed as decrease in inflammatory cell infiltration at 25 mg/kg, IG administered twice daily for 2 weeks by bioluminescence microscopy; assay type: functional, organism-based
[33] = AUC(0 to infinity) in Sprague-Dawley rat at 20 mg/kg, IG measured upto 12 hrs by LC-MS/MS analysis; assay type: ADME, organism-based; conditions: in vivo, po
[34] = AUC(0 to infinity) in Sprague-Dawley rat at 2 mg/kg, iv measured upto 12 hrs by LC-MS/MS analysis; assay type: ADME, organism-based; conditions: in vivo
Mus musculus [35] = experiment: Anti-inflammatory activity in DSS induced C57BL/6 mouse model of colitis assessed as restoration of structural integrity of epithelium at 25 mg/kg, IG administered twice daily for 2 weeks by bioluminescence microscopy; assay type: functional, organism-based
[36] = Tmax in Sprague-Dawley rat at 2 mg/kg, iv measured upto 12 hrs by LC-MS/MS analysis; assay type: ADME, organism-based; conditions: in vivo
[37] = Stability in human plasma assessed as half life measured upto 120 mins by LC-MS analysis; assay type: ADME, cell-free
[38] = Clearance in Sprague-Dawley rat at 20 mg/kg, IG measured upto 12 hrs by LC-MS/MS analysis; assay type: ADME, organism-based; conditions: in vivo, po
[39] = Volume of distribution in Sprague-Dawley rat at 2 mg/kg, IV measured upto 12 hrs by LC-MS/MS analysis; assay type: ADME, organism-based; conditions: in vivo
[40] = AUC(0 to t) in Sprague-Dawley rat at 20 mg/kg, IG measured upto 12 hrs by LC-MS/MS analysis; assay type: ADME, organism-based; conditions: in vivo, po
[41] = MRT in Sprague-Dawley rat at 2 mg/kg, iv measured upto 12 hrs by LC-MS/MS analysis; assay type: ADME, organism-based; conditions: in vivo
[42] = MRT in Sprague-Dawley rat at 20 mg/kg, IG measured upto 12 hrs by LC-MS/MS analysis; assay type: ADME, organism-based; conditions: in vivo, po
[43] = Cmax in Sprague-Dawley rat at 20 mg/kg, IG measured upto 12 hrs by LC-MS/MS analysis; assay type: ADME, organism-based; conditions: in vivo, po

T1 sequence (P61073 whole entry): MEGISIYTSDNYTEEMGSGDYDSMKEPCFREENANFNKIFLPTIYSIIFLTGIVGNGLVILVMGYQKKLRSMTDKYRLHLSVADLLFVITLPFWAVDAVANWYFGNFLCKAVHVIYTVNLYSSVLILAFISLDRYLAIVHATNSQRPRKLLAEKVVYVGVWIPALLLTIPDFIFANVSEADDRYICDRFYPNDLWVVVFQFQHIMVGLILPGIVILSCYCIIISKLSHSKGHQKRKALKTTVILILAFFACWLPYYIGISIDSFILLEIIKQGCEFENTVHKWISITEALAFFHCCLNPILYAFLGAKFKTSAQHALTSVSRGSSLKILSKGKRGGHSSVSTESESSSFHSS

O=C(NCc1ccccc1-n1cccn1)c1cnc2ccccc2n1
Activity [1]: 11.1%

Fc1ccc(F)c(NCCN2CCN(c3nccc4ccccc34)CC2)c1
Activity [1]: 58.6%

O=C(c1cnc2ccccc2c1)N1CCC(N2CCCC2)CC1
Activity [1]: 64.5%

Cc1cc(O)cc(C(=O)N2CCN(c3ccc(F)cc3)CC2)c1
Activity [1]: 64.3%

O=C(NO)c1ccc(NC(=O)c2ccccc2C(F)(F)F)cc1
Activity [1]: 55.4%

O=C(c1cnc2ccccc2c1)N1CCC(N2CCOCC2)CC1
Activity [1]: 53.6%

Cc1ccc(C)c(CC(=O)N2CCN(c3ccccc3)CC2)c1
Activity [1]: 59.5%

Cc1cccc(NC(=O)N2CCN(c3nccc4ccccc34)CC2)c1
Activity [1]: 33.7%

Cc1ccc(CN2CCN(c3nc(N)c4sccc4n3)CC2)cc1
Activity [1]: 59.1%

O=C(c1cc2ccccc2[nH]1)N1CCN(c2ccc(Cl)cn2)CC1
Activity [1]: 40.2%

O=S(=O)(c1ccc(F)c(F)c1)N1CCN(c2ccc3ccccc3n2)CC1
Activity [1]: 64.8%

O=C(NC1CCN(Cc2cccnc2)CC1)c1cnc2ccccc2c1
IC50 [2]: 5.7 nM
Activity (Mus musculus [3]): 33.3%
Activity (Mus musculus [4]): Active
Activity [1]: 67.1%
Activity (Mus musculus [5]): Active
inhibition (RAW264.7 [6]): Active
Activity (Mus musculus [7]): Active
Activity (Mus musculus [8]): Active
Activity (Mus musculus [9]): 2
Activity (Mus musculus [10]): Active
inhibition (INH) (RAW264.7 [11]): 75.63%
Activity (Mus musculus [12]): Active
Activity (Mus musculus [13]): Active
Activity (Mus musculus [14]): Active
Activity (Mus musculus [15]): Active

O=C(c1ccco1)N1CCN(C2CCN(c3ccccc3)CC2)CC1
remaining at 2 h [16]: 87%
bioavailability [17]: 91.1%
half-life [18]: 0.81 h
Activity (Mus musculus [19]): Active
Activity (Mus musculus [20]): Active
IC50 [2]: 3.2 nM
Activity (Mus musculus [3]): 53.3%
clearance [21]: 99.4 mL/min/kg
Activity (Mus musculus [4]): Active
Activity (Mus musculus [22]): Active
Activity [1]: 78.9%
Activity (Mus musculus [23]): Active
Activity (Mus musculus [5]): Active
inhibition (RAW264.7 [6]): Active
half-life [24]: 1.12 h
half-life [25]: 1.71 h
AUC(0-t) at 12 h [26]: 330 ng·h/mL
Activity (Mus musculus [7]): Active
Vd [27]: 16.16166 L/kg
Activity (Mus musculus [8]): Active
Cmax [28]: 351 ng/mL
Activity (Mus musculus [9]): 1.4
remaining at 0.75 h [29]: 62%
Tmax [30]: 0.25 h
Activity (Mus musculus [31]): Active
Activity (Mus musculus [10]): Active
inhibition (INH) (RAW264.7 [11]): 79.19%
Activity (Mus musculus [12]): Active
Activity (Mus musculus [32]): Active
Activity (Mus musculus [13]): Active
AUC(0-inf) [33]: 3070 ng·h/mL
AUC(0-inf) [34]: 340 ng·h/mL
Activity (Mus musculus [35]): Active
Activity (Mus musculus [14]): Active
Tmax [36]: 4.8 min
half-life [37]: > 2 h
Activity (Mus musculus [15]): Active
CL/F [38]: 109 mL/min/kg
Vd [39]: 6.04 L/kg
AUC(0-t) at 12 h [40]: 3010 ng·h/mL
MRT [41]: 1.03 h
MRT [42]: 2.62 h
Cmax [43]: 1440 ng/mL

COc1ccc(C(=O)N[C@@H]2CCc3[nH]c4ccccc4c3C2)cc1
Activity [1]: 38.3%

O=C(c1cnc2ccccc2c1)N1CCN(c2ccccc2F)CC1
Activity [1]: 52.2%

c1cc(CN2CCCNCCNCCCNCC2)ccc1CN1CCCNCCNCCCNCC1 [PLERIXAFOR]
Activity (Mus musculus [3]): 40%
Activity (Mus musculus [4]): Active
Activity [1]: 62.9%
Activity (Mus musculus [5]): Active
Activity (Mus musculus [7]): Active
Activity (Mus musculus [9]): 1.8

O=S(=O)(NCc1ccc(-c2ccccc2)cc1)c1cc(F)c(F)cc1F
Activity [1]: 54.9%

O=C(NC1CCN(Cc2ccccc2)CC1)c1ccc(Cl)cc1Cl
Activity [1]: 61.2%

CC(=O)N1CCC(N(Cc2cccc(C)c2O)C(=O)c2cccc3ccccc23)CC1
Activity [1]: 59.2%

Cc1c(C)c2ccc(OCc3ccc(F)c(F)c3)cc2oc1=O
Activity [1]: 51.9%

CC1CN(C(=O)c2ccccc2C(=O)Nc2ccccc2)CCN1C(=O)c1ccc(F)c(F)c1 (configuration not stated)
Activity [1]: 62.7%
